Calls of active or inactive are those of the source.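 Rule for the calls: active = caspase luminescence falls with dose and the half-maximal concentration AC50 from the fitted curve is at or below a set limit; inconclusive = flat fit at 30 to 70% signal loss, or invalid fit; inactive = AC50 above the limit, or signal rises instead.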

This test relates to INS-1E cytokine-induced caspase-3/7, Caspase-Glo luminescence, 48 h. The experiment in a line: inhibitors of cytokine-induced caspase-3/7 activity, dose response, orthogonal assay for beta-cell apoptosis protection project, INS-1E rat cells, luminescence (AID 463206).
The term AC50 denotes the concentration giving half of the maximal activity seen. With `Cc1ccc(Nc2c(-c3ccccn3)nc3ccc(C)cn23)cc1`, the AC50 was > 26 µM (inactive).
The figure for `S=C(c1cn(CCOc2cccc3ccccc23)c2ccccc12)N1CCCC1` is > 26 µM (inactive); for `CN(C)c1ccc(-c2cc(O)c3ncccc3c2)cc1` it is > 26 µM (inactive); for `O=c1c2c(nc3c(-c4ccc(Cl)cc4)c[nH]n13)CCCC2` it is > 26 µM (inactive).
For the compound `C/C(=N/NC(=O)CN(c1ccccc1)S(=O)(=O)c1ccccc1)c1ccccc1O`, the AC50 was > 26 µM (inactive).
The value for `Cc1ccc(NC2=C/C(=N/S(=O)(=O)c3cccs3)c3ccccc3C2=O)cc1C` was > 26 µM (inactive); that for `CCN1CCN(Cc2ccc(NC(=O)c3ccc(C)c(NC(=O)c4c[nH]c5cc(C(F)(F)F)ccc5c4=O)c3)cc2C(F)(F)F)CC1` was > 26 µM (inactive); that for `N=c1ccn(Cc2ccc(Cl)cc2Cl)cc1` was > 26 µM (inactive).
The value for `CCC(=NNC(=O)c1ccc2c(c1)nc(C)n2CC)c1cc(F)ccc1O` was > 26 µM (inactive); that for `CCCC12C(=O)C(C)(C(c3ccccc3)=C1c1ccccc1)C1C(=O)N(c3ccc(C)cc3)C(=O)C12` (stereo not drawn) was > 26 µM (inactive); that for `O=C(Nc1ccc(OCC(F)(F)C(F)F)c(C(F)(F)F)c1)c1ccccc1O` was > 26 µM (inactive).
The figure for `CCOc1ccc(Nc2nc(Cc3nnc(SCC(=O)c4ccc(C)c(C)c4)o3)cs2)cc1` is > 26 µM (inactive).
As to `CNC(=O)c1cc(Oc2ccc(NC(=O)Nc3ccc(Cl)c(C(F)(F)F)c3)cc2)ccn1`, the AC50 was > 26 µM (inactive).
Consider `Cc1ccccc1N1CCN(Cc2c[nH]c3ccccc23)CC1`, for which the AC50 is > 26 µM (inactive).
On to `CNc1nc(N/N=C/c2cc3c(cc2[N+](=O)[O-])OCO3)nc(Nc2ccccc2)n1`, for which the AC50 was > 26 µM (inactive).
The figure for `O=S(=O)(/C(=C/c1ccc(C(F)(F)F)cc1)c1nc2ccccc2[nH]1)c1ccccc1` is > 26 µM (inactive).
In the case of `Oc1ccc(N=Nc2ccc3c(c2)OCCO3)c2ncccc12`, the AC50 was > 26 µM (inactive).
Consider `CCN(CC)c1ccc(/C=N/Nc2nc(C)cc(C)n2)c(O)c1`, for which the AC50 was > 26 µM (inactive).
The value for `O=C(CN1C(=O)c2ccccc2S1(=O)=O)c1ccc(F)cc1` was > 26 µM (inactive).
The value for `CCN(CC)S(=O)(=O)c1ccc(Cl)c(C(=O)Nc2ccc(Cl)cc2[N+](=O)[O-])c1` was > 26 µM (inactive); that for `COc1cc(CSc2nnnn2-c2ccc(C)cc2)cc(OC)c1OC` was > 26 µM (inactive); that for `COc1cc(C(=O)Oc2ccccc2/C=N/NC(=O)c2ccc(C)c(Cl)c2)cc(OC)c1OC` was > 26 µM (inactive).
The value for `Cc1ccc(-n2c(-c3ccccc3)c[n+]3c2CCc2ccccc2-3)c(C)c1` was > 26 µM (inactive).
Regarding `C/C(=N\NC(=O)c1ccccc1Cl)c1ccccn1`, the AC50 is > 26 µM (inactive).
The figure for `COC(=O)c1ccccc1NC1=C/C(=N\S(=O)(=O)c2ccc(C(=O)O)cc2)c2ccccc2C1=O` is > 26 µM (inactive); for `CCOCCCNC(=O)c1c[nH]c2cc(OC)ccc2c1=O` it is > 26 µM (inactive).
The value for `CCN1CCN(c2c(Cl)cccc2NC(=O)c2ccc([N+](=O)[O-])o2)CC1` was > 26 µM (inactive); that for `CCCCCn1c(=O)c(C(=O)NCc2ccccc2Cl)c(O)c2ccccc21` was > 26 µM (inactive); that for `Oc1ccc2ccccc2c1/C=N/Nc1nnc(-c2ncc[nH]2)c2ccccc12` was > 26 µM (inactive).
The value for `C=CCn1c(SCN2C(=O)c3ccccc3C2=O)nc2ccc(Cl)cc2c1=O` was > 26 µM (inactive); that for `O=C(/C(=C/c1ccc(Cl)cc1)c1nc2ccccc2[nH]1)c1ccccc1` was > 26 µM (inactive); that for `CC(NCC(O)COCCC12CC3CC(CC(C3)C1)C2)c1ccccc1` (stereo not drawn) was > 26 µM (inactive).
With `COc1cc(CC(=O)Nc2nc(-c3ccc(F)c(F)c3)cs2)cc(OC)c1OC`, the AC50 was > 26 µM (inactive).
The figure for `Brc1ccc(CN2CCN(Cc3c[nH]c4ccccc34)CC2)cc1` is > 26 µM (inactive); for `COc1ccc(O)c(/C=N/NC(=O)c2ccc(OCc3cccc(Br)c3)cc2)c1` it is > 26 µM (inactive).
The figure for `Oc1ccc(/C=N/Nc2ncc(Br)cn2)c(O)c1` is > 26 µM (inactive); for `Cc1ccc(F)c([C@H]2C3C=CCC(c4ccccc4)C3C(=O)N2Cc2ccccc2)c1` (stereo partly drawn) it is > 26 µM (inactive); for `CC(C)CN(C(=O)COC(=O)C12CC3CC(CC(C3)C1)C2)c1c(N)n(Cc2ccccc2)c(=O)[nH]c1=O` it is > 26 µM (inactive).
The figure for `CN(Cc1cccnc1)C(=O)c1cc(COc2ccc3ncccc3c2)on1` is > 26 µM (inactive); for `CCOC(=O)c1c(C)[nH]c(C(=O)N/N=C\c2ccccc2O)c1C` it is > 26 µM (inactive); for `O=C(Nc1ccc(C(=O)Nc2ccccc2Cl)cc1)c1cccnc1` it is > 26 µM (inactive).
Consider `COc1cccc(/C=N/NC(=O)c2[nH]nc3c2CCc2ccccc2-3)c1O`, for which the AC50 was > 26 µM (inactive).
Turning to `C=CC[C@@H](CC(=O)N(CCO)Cc1ccccc1)C(=O)N[C@H](COC(=O)[C@@H](CC=C)CC(=O)OC(C)(C)C)c1ccccc1`, the AC50 is > 26 µM (inactive).
The value for `COc1ccc(C)cc1Nc1n[n+](-c2ccccc2)c(-c2c(OC)ccc3ccccc23)s1` was > 26 µM (inactive); that for `CC(=O)Nc1ccc(Nc2c3ccccc3nc3ccccc23)cc1` was 8.76 µM.
The figure for `C(=N\Nc1nncc2ccccc12)/c1ccccn1` is > 26 µM (inactive); for `COC(=O)c1cccc(NC(=O)Nc2ccc(Cl)c(Cl)c2)c1` it is > 26 µM (inactive).
The value for `NNc1ncnc2scc(-c3ccc(Cl)cc3)c12` was > 26 µM (inactive).
For the compound `Cc1ccc2[nH]c(C(=O)N/N=C/c3ccccc3O)c(C)c2c1`, the AC50 is > 26 µM (inactive).
The value for `CC(C)c1cccc(C(C)C)c1OC(=O)[C@H]1OC(C(C)(C)C)=C[C@@H]1c1ccccc1` was > 26 µM (inactive); that for `CC1(C)CC(N2CCN(Cc3ccccc3)CC2)=CC(=[N+]2CCCCC2)C1` was > 26 µM (inactive).
The value for `Cc1ccc(-n2c(-c3ccccc3)c[n+]3c2CCC3)cc1` was > 26 µM (inactive); that for `Cc1ccc2c(c1)[nH]c1c(N3CCN(Cc4ccccc4)CC3)ncnc12` was > 26 µM (inactive).
For `CCSc1ccc(NC(=O)c2cccnc2)cc1`, the AC50 is > 26 µM (inactive).
The figure for `O=S(=O)(C/C(=C/CO)S(=O)(=O)c1ccccc1)c1ccccc1` is 4.21 µM; for `NC(N)=NC(N)=Nc1ccc(SC(F)(F)F)cc1` it is > 26 µM (inactive).
As for `COc1cccc(/C=N/NC(=O)C(=O)Nc2ccccc2OC(F)(F)C(F)F)c1O`, the AC50 is > 26 µM (inactive).
The value for `CN1/C(=C\C(=O)C[n+]2ccc(C(=O)c3ccccc3)cc2)C(C)(C)c2ccccc21` was > 26 µM (inactive); that for `COc1ccc(O)c(/C=N/NC(=S)Nc2cccnc2)c1` was > 26 µM (inactive).
Regarding `CCOc1ccc(-n2c(-c3ccccc3)c[n+]3c2CCC3)cc1`, the AC50 is > 26 µM (inactive).
The figure for `CCCCCCOC(=O)C[N+](C)(C)CCOC1CC2CCC1(C)C2(C)C` (stereo not drawn) is > 26 µM (inactive); for `O=C(Nc1ccc(-c2noc(-c3cccs3)n2)cc1)c1cccnc1` it is > 26 µM (inactive).
The figure for `COc1ccc(-c2c[n+](CC(=O)OC3CC(C)CCC3C(C)C)c3n2CCC3)cc1` (stereo not drawn) is > 26 µM (inactive).
Consider `CC[C@H](C)Cc1cn([C@@H](CCCCNC(=O)OC(C)(C)C)C(=O)NCCCCCCCCCCC(=O)N2CCN(C(=O)OC(C)(C)C)CC2)nn1`, for which the AC50 is > 26 µM (inactive).
The value for `Cc1ccc2ccc3cccnc3c2n1` was > 26 µM (inactive).
The value for `C=CC[n+]1c(/C=C2\C=Cc3cc(C)ccc3N2CC)ccc2ccccc21` was > 26 µM (inactive); that for `Oc1c(CN2CCOCC2)cc(COCc2ccccc2)c2cccnc12` was > 26 µM (inactive).
The figure for `O=C(NCc1cccnc1)c1ccc(-c2cc3ccccc3oc2=O)cc1` is > 26 µM (inactive); for `O=C(Nc1cccc(S(=O)(=O)Nc2ccc(Cl)cc2)c1)c1ccc(Cl)nc1` it is > 26 µM (inactive); for `C=C[C@H](CC(C)C)N(Cc1ccccc1)S(=O)(=O)N(Cc1ccccc1)[C@@H](C=C)CC(C)C` it is > 26 µM (inactive).
As for `CCCCCCc1cc2cc(-c3nnc(-c4ccccc4O)o3)c(=O)oc2cc1O`, the AC50 was > 26 µM (inactive).
The value for `Cc1cc(N/N=C/c2ccc(O)cc2O)nc(-c2ccccc2O)n1` was > 26 µM (inactive); that for `O=C(NNc1ccnc2cc(Cl)ccc12)C1CCCCC1` was > 26 µM (inactive).
The value for `O=S(=O)(c1ccc(F)c(F)c1F)N1CCN(c2ncnc3sccc23)CC1` was > 26 µM (inactive).
The value for `O=C(Nc1ccc([N+](=O)[O-])cc1)Nc1nc(-c2ccc(Cl)s2)cs1` was > 26 µM (inactive); that for `CC(C(c1cccs1)c1c(N)n(C)c(=O)n(C)c1=O)[N+](=O)[O-]` (stereo not drawn) was > 26 µM (inactive).
Consider `CN(C)c1nc(N/N=C/c2ccccc2O)nc(Nc2ccc(F)cc2)n1`, for which the AC50 is > 26 µM (inactive).
The value for `Cc1[nH]n(-c2ccccc2)c(=O)c1/C=N\NC(=O)C1COc2ccccc2O1` (stereo not drawn) was > 26 µM (inactive).
The value for `N=c1ccn(CC(=O)c2ccc(-c3ccccc3)cc2)cc1` was > 26 µM (inactive); that for `C/C(=N/NC(=O)c1cccs1)c1c(C)[nH]n(-c2nc3ccccc3s2)c1=O` was > 26 µM (inactive).
The value for `CCCc1sc(N/N=C/c2ccccn2)nc1-c1ccc(F)cc1` was > 26 µM (inactive); that for `O=C(Nc1ccc(N2CCN(C(=O)c3ccc(Cl)cc3)CC2)cc1)c1cccnc1` was > 26 µM (inactive).
As for `O=C(Nc1ccc(C(F)(F)F)cc1)C1CCN(S(=O)(=O)c2ccc(N3CCCC3=O)cc2)CC1`, the AC50 is > 26 µM (inactive).

The record behind these values is PubChem BioAssay AID463206 (Broad Institute, 2010).
